In patent publication US20020086278A1, “CHROMOGENIC MEDIA CONTAINING BLOOD OR HEMIN” (priority 1999, published 2002):
Like-named read-outs stand apart in the source and are kept apart here.

How the values were obtained:
Assay type in all cases: cell-based
55 strains = assay: Example 3: color, hemolytic activity and growth over all 55 strains; conditions: some strains
Excerpt: Steers, E. et al., Antibiot.

S. pneumoniae (stpn) = assay: Example 3: colony color on chromogenic TSA II with 5% sheep blood (chromogen in medium)
[1] = system: Streptococcus agalactiae (stag); assay: as above
[2] = system: Branhamella catarrhalis (brca); assay: as above; conditions: CO2, 21 h
[3] = system: Citrobacter freundii (cifr); assay: as above; conditions: CO2, 21 h
S pyogenes (stpy) = assay: as above; conditions: 21 h
[4] = system: Aeromonas hydrophilia (aehy); assay: as above; conditions: CO2, 21 h
[5] = system: Serratia marcescens (sema); assay: as above; conditions: sema 13880; CO2; 21 h
[6] = system: Pseudomonas aeruginosa (psae); assay: as above; conditions: CO2, 21 h
E. faecium (enfu) = assay: as above; conditions: enfu 49032, 21 h
[7] = system: E. coli (non-O157) (esco)
milu 9341 = assay: Example 3: colony color on chromogenic TSA II with 5% sheep blood (chromogen in medium); conditions: CO2, 21 h
S. milleri (stmi) = assay: as above; conditions: stmi 6249, 21 h
[8] = system: Staphylococcus aureus (stau); assay: as above
Salmonella spp. (sasp) = conditions: CO2, 21 h
[9] = system: Entercoccus faecalis (enfa); assay: Example 3: colony color on chromogenic TSA II with 5% sheep blood (chromogen in medium)
[10] = system: Staphylococcus Coag Neg (step); assay: as above; conditions: 21 h
Candida albicans (caal) = assay: as above; conditions: caal 10231, 24 h
cakr 34135 = assay: as above; conditions: CO2, 21 h
[11] = system: Klebsiella pneumoniae (klpn); assay: as above

CC(C)S[C@@H]1O[C@H](CO)[C@H](O)[C@H](O)[C@H]1O [IPTG, Isopropyl-β-D-thiogalactopyranoside]
reduce the reactivity: Effect on reactivity with X-gal (55 strains)

NC1CCCCC1.O=C(O)[C@H]1O[C@@H](Oc2c[nH]c3cc(Cl)ccc23)[C@H](O)[C@@H](O)[C@@H]1O [Sal-Glucuro, 6-Cl-3-indolyl-β-D-glucuronide (CHA salt)]
gp: Colony Color ([1]; stag 12386, CO2, 24 h) | Colony Color ([1]; stag 12386, air, 24 h)
0: Colony Color (S. pneumoniae (stpn); stpn 1259, CO2, 21 h) | Colony Color (S. pneumoniae (stpn); stpn 1260, CO2, 21 h) | Colony Color (S. pneumoniae (stpn); stpn 1628, CO2, 21 h) | Colony Color (S. pneumoniae (stpn); stpn 6303, CO2, 24 h) | Colony Color (S. pneumoniae (stpn); stpn 6303, air, 24 h) | Colony Color (S. pneumoniae (stpn); stpn 6305, CO2, 24 h) | Colony Color (S. pneumoniae (stpn); stpn 6305, air, 24 h) | Colony Color ([1]; stag 4768, CO2, 21 h) | Colony Color ([1]; stag 4768, air, 21 h) | Colony Color ([1]; stag 12386, CO2, 21 h) | Colony Color ([2]; brca 25238) | Colony Color ([2]; brca 25240) | Colony Color ([3]; cifr 8454) | Colony Color ([3]; cifr 33128) | Colony Color (S pyogenes (stpy); stpy 1027, CO2) | Colony Color (S pyogenes (stpy); stpy 1028, CO2) | Colony Color (S pyogenes (stpy); stpy 1029, CO2) | Colony Color (S pyogenes (stpy); stpy 1030, CO2) | Colony Color (S pyogenes (stpy); stpy 19615, CO2) | Colony Color (S pyogenes (stpy); stpy 19615, air) | Colony Color (S pyogenes (stpy); stpy 49117, CO2) | Colony Color (S pyogenes (stpy); stpy 49117, air) | Colony Color (S pyogenes (stpy); stpy 51339, CO2) | Colony Color (S pyogenes (stpy); stpy 51339, air) | Colony Color ([4]; aehy 7965) | Colony Color ([4]; aehy 7966) | Colony Color ([4]; aehy 49847) | Colony Color [5] | Colony Color ([6]; psae 9027) | Colony Color ([6]; psae 15442) | Colony Color ([6]; psae 33607) | Colony Color (E. faecium (enfu); CO2) | Colony Color (E. faecium (enfu); air) | Colony Color ([7]; esco 11775, CO2, 21 h) | Colony Color ([7]; esco 25922, CO2, 24 h) | Colony Color ([7]; esco 25922, air, 24 h) | Colony Color ([7]; esco 33605, CO2, 21 h) | Colony Color (milu 9341) | Colony Color (S. milleri (stmi); CO2) | Colony Color (S. milleri (stmi); air) | Colony Color ([8]; stau 1006, CO2, 21 h) | Colony Color ([8]; stau 1007, CO2, 21 h) | Colony Color ([8]; stau 1008, CO2, 21 h) | Colony Color ([8]; stau 1009, CO2, 21 h) | Colony Color ([8]; stau 25923, CO2, 24 h) | Colony Color ([8]; stau 25923, air, 24 h) | Colony Color (Salmonella spp. (sasp); saty 19430) | Colony Color (Salmonella spp. (sasp); satym 14028) | Colony Color ([9]; enfa 597, CO2, 21 h) | Colony Color ([9]; enfa 597, air, 21 h) | Colony Color ([9]; enfa 10741, CO2, 21 h) | Colony Color ([9]; enfa 10741, air, 21 h) | Colony Color ([9]; enfa 12953, CO2, 21 h) | Colony Color ([9]; enfa 12953, air, 21 h) | Colony Color ([9]; enfa 14506, CO2, 21 h) | Colony Color ([9]; enfa 14506, air, 21 h) | Colony Color ([9]; enfa 29212, CO2, 21 h) | Colony Color ([9]; enfa 29212, CO2, 24 h) | Colony Color ([9]; enfa 29212, air, 21 h) | Colony Color ([9]; enfa 29212, air, 24 h) | Colony Color ([10]; step 12228, CO2) | Colony Color ([10]; step 12228, air) | Colony Color ([10]; step cdc1, CO2) | Colony Color ([10]; step cdc1, air) | Colony Color ([10]; step cdc2, CO2) | Colony Color ([10]; step cdc2, air) | Colony Color ([10]; step cdc3, CO2) | Colony Color ([10]; step cdc3, air) | Colony Color ([10]; step cdc4, CO2) | Colony Color ([10]; step cdc4, air) | Colony Color (Candida albicans (caal); CO2) | Colony Color (Candida albicans (caal); air) | Colony Color (cakr 34135) | Colony Color ([11]; klpn 13883, CO2, 21 h) | Colony Color ([11]; klpn 33495, CO2, 24 h) | Colony Color ([11]; klpn 33495, air, 24 h) | Colony Color ([11]; klpn 33606, CO2, 21 h)
